Structures are written as SMILES.

The nature of this data set: Test for encapsulating rate of drugs in nanoparticles encapsulating double drugs. As to conditions: trend as pH of the aqueous mixture solution increased (pH 7.5 to 11, FIG. 1). Format: physicochemical. As to the method:
The synthesized nanoparticles encapsulating double drugs were placed in a concentrating centrifuge tube, and perform centrifugation at a speed of 4,000 rpm for 30 minutes.
(1). Encapsulating Rate of Cisplatin
The clear solution in the concentrating centrifuge tube was diluted 20 folds and mixed with 0.14% solution of o-phenylenediamine in dimethylformamide at a ratio of 1:1, the mixture was heated at 100° C. for 30 minutes and then was cooled in a refrigerator at −20° C. for 10 minutes, finally, the solution was examined for the peak value at a wavelength of 705 nm with UV-visual spectrum, and content of non-encapsulated Cisplatin was converted from the peak value, thereby giving the encapsulating rate of Cisplatin.
(2). Encapsulating Rate Test of Demethoxycurcumin
The nanoparticles on the filter membrane of the concentrating centrifuge tube were re-dissolved in double-distilled water, the solution was mixed with methanol at a ratio of 1:1, and the mixture was analyzed using HPLC. The determination was performed at a flow rate of 1 mL/min under the detection condition at a wavelength of 425 nm, using C18 as stationary phase and acetonitrile-0.3% FA (50:50, v/v) as mobile phase, and the detection result was converted into the concentration of demethoxycurcumin to obtain the encapsulating rate of the drug.

For the compound `N.N.[Cl][Pt][Cl]` [Cisplatin], the encapsulating rate result was “increased”.

The values above are taken from US20170027877A1, “DRUG COMPOSITION AND METHOD FOR PREPARING THE SAME” (priority 2015, published 2017).
